Earlier results as cited in patent US20170009119A1, “DIELECTRIC FLUID AND COOLANT MADE WITH BIOBASED BASE OIL” (Novvi LLC, priority 2014, published 2017).

Tested on: aquatic life
Conditions: European Directive 67/548/EEC

c1ccc2c(c1)CCCC2 [tetralin, 1,2,3,4-tetrahydronaphthalene]
toxicity to aquatic life (code R51/53): toxic to aquatic life with long lasting effects
